According to US20090258836A1, “EFFECTIVE DELIVERY OF CROSS-SPECIES A3 ADENOSINE-RECEPTOR ANTAGONISTS TO REDUCE INTRAOCULAR PRESSURE” (The Trustees of The University of Pennsylvania, priority 2006, published 2009):

Tests used:
human A2A receptors = human A2A receptors (Homo sapiens, UniProt P29274); conditions: literature; read-out: Ki for the binding to human A2A receptors; cited from earlier work
mouse IOP = test: Mouse IOP after topical application, invasive servo-null micropipette system (SNMS); type: in vivo, Black Swiss mice; conditions: after topical application
Method in brief: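 Black Swiss outbred mice, 7-9 weeks, under i.p. ketamine plus topical proparacaine. Drugs applied topically as droplets with <2% DMSO (none for hydrophilic compounds) and 0.0005% benzalkonium chloride, 295-300 mOsm. IOP measured invasively by servo-null micropipette 10 min after a single application.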

human A1 receptors = molecular target: T1, human A1 receptors (Homo sapiens, UniProt P30542); conditions: literature; read-out: Ki for the binding to human A1 receptors; cited from earlier work
T1 sequence (P30542 1-326): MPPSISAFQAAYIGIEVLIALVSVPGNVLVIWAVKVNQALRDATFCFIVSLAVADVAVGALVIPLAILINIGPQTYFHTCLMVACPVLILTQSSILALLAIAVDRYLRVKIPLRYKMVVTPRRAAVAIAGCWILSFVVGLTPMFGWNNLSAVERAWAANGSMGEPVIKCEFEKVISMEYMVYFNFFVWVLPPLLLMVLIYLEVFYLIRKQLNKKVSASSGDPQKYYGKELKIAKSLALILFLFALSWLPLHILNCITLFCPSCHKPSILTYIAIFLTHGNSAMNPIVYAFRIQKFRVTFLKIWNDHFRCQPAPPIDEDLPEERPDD

[1] = system: IOP of A3 subtype adenosine receptor (A3AR)-null mice; conditions: published reports; cited from earlier work
[2] = molecular target: T2, recombinant human A2B receptors (Homo sapiens, UniProt P29275); test: Radioligand binding to recombinant human A2B receptors; conditions: 10 μM
T2 sequence (P29275 1-332): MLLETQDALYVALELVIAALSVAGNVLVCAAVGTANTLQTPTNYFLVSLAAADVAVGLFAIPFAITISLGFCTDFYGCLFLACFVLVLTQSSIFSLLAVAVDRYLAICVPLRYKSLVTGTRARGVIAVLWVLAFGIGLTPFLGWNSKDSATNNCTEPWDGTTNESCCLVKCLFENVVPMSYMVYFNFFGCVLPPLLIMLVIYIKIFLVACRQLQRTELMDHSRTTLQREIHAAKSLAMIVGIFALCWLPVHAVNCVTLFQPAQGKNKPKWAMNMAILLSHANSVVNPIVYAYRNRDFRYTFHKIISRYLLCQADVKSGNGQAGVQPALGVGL

Sequence of human A2A receptors (P29274 whole entry): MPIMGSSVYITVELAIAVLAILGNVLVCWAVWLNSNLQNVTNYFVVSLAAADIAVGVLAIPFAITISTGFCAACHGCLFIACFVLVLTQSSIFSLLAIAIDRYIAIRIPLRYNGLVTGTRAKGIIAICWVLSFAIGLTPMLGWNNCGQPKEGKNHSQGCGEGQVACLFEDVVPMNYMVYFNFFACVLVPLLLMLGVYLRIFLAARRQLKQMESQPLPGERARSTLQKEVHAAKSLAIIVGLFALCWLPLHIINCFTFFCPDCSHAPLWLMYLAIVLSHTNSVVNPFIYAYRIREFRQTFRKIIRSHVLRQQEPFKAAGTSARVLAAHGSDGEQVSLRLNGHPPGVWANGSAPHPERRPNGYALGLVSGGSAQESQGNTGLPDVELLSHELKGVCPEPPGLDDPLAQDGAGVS

CCOC(=O)C1=C(C)NC(c2ccccc2)=C(C(=O)OCc2ccccc2)C1C#Cc1ccccc1 (racemic) [MRS-1191, 3-ethyl 5-benzyl-2-methyl-6-phenyl-4-phenylethynyl-1,4-(±)-dihydropyridine-3,5-dicarboxylate]
Ki (human A2A receptors): > 100 µM | time to begin to lower IOP, invasive servo-null technique (mouse IOP): within about a minute | Ki (human A1 receptors): 40.1 µM | response of IOP of A3AR-null mice [1]: unresponsive | displacement of radioligand binding [2]: did not displace radioligand binding
